According to patent US6855346B2, “Pharmaceutical composition having prophylactic effects on lamivudine-related disease relapse and drug resistance and methods of using the same” (priority 2001, dated 2005):
Marks after values point to notes of the source that are not given here.

What was measured:
Format in all cases: in vivo, human
[1] = test system: Chronic Hepatitis B (HBV); experiment: Clinical study of YGK and lamivudine in chronic hepatitis B patients: serum biological markers (Example 6)
Protocol: Patients were randomized and divided into group A, B and C. Group A was the treatment group with 48 patients while group B with 42 patients and group C with 45 patients were positive control groups.
(§1) (2) Treatment Method • Each treatment period lasted for 4 weeks.
(§2) (1) Observe Items • (a) Hepatitis B biological markers: Serum HBV-DNA, HBeAg, Anti-Hbe, HbsAg, Anti-HBs were analyzed before treatment, at week 4, 8, 16 and 32 during treatment and at week 24 and 48 after treatment termination. • Serum HBV-DNA was measured by polymerase chain reaction (PCR) using 9600 DNA Amplification Machine (PE corp., USA) and reagents from E-li-kang Biotech. Corp., Zhejiang, Wenzhou, China. Serum HBeAg, anti-HBe, HBsAg, and Anti-HBs were determined by the Imx method using Automatic Quick Micro Immune Analytic Instrument and reagents from Abbott Laboratories, USA. • (b) Hepatic functions: ALT was monitored at week 4, 8, 16 and 32 during treatment and at week 24 and 48 after treatment termination. • (c) Adverse effects: Patients were constantly monitored by the medical staff for adverse effect throughout the treatment periods.
Data obtained at weeks 4, 8, 16, and 32 during treatment and at weeks 24 and 48 after treatment termination were analyzed by Chi-square (X^2) and t-test. The statistical results obtained were used to evaluate the therapeutic effects.

[2] = Clinical study of YGK and lamivudine in chronic hepatitis B patients: adverse effects; conditions: after 16 weeks of treatment, of 42 patients; disappeared after 2 more weeks
Protocol: (§3) A total of 135 patients who met the criteria were included in this study. Patients were randomized and divided into group A, B and C. Group A was the treatment group with 48 patients while group B with 42 patients and group C with 45 patients were positive control groups.
as §1, §2

[3] = test system: ALT; experiment: Clinical study of YGK and lamivudine in chronic hepatitis B patients: hepatic function (ALT)
Protocol: as §3, §1, §2
Data obtained at weeks 4, 8, 16, and 32 during treatment and at weeks 24 and 48 after treatment termination were analyzed by Chi-square (X^2) and t-test. […]

[4] = number of patients after 4 weeks of treatment
[5] = number of patients after 8 weeks of treatment
[6] = number of patients after 16 weeks of treatment
[7] = number of patients after 32 weeks of treatment
[8] = number of patients at week 24 after treatment termination
[9] = number of patients at week 48 after treatment termination

Q: With `Nc1ccn([C@@H]2CS[C@H](CO)O2)c(=O)n1` [lamivudine, (2R, cis)-4-amino-1-(2-hydroxmethyl-1,3-oxathiolan-5-yl)-(1H)-pyrimidin-2-one] as the molecule, how does the HBeAg seroconversion ([1]; after 16 weeks of treatment) read?
A: Its HBeAg seroconversion is 4.8%.

Q: What about the “patients with negative HBV DNA” value ([1]; after 16 weeks of treatment) of the same molecule?
A: Its value is 61.9%.

Q: And the “HBV DNA negative conversion” value ([1]; after 32 weeks of treatment)?
A: The value was 90.5%.

Q: And the HBeAg seroconversion ([1]; after 32 weeks of treatment)?
A: The HBeAg seroconversion was 9.5%.

Q: And the “rate for patients turning negative in HBeAg” value ([1]; after lamivudine treatment)?
A: The value was 9.5%.

Q: And the “Seroconversion of HBeAg” value [1, 4]?
A: The value was 0**.

Q: What about the “Seroconversion of HBsAg” value [1, 4] of the same molecule?
A: Its value is 0.

Q: And the “Seroconversion of anti-Hbe” value [1, 4]?
A: Its value is 0**.

Q: What about the “Seroconversion of Anti-HBs” value [1, 5] of the same molecule?
A: Its value is 0.

Q: What about the “Seroconversion of HBeAg” value [1, 5] of the same molecule?
A: The value was 0**.

Q: And the “Seroconversion of HBsAg” value [1, 5]?
A: The value was 0**.

Q: What about the “Seroconversion of anti-HBe” value [1, 5] of the same molecule?
A: The value was 0**.

Q: And the “Seroconversion of Anti-HBs” value [1, 6]?
A: Its value is 0.

Q: What about the “Seroconversion of HBeAg” value [1, 6] of the same molecule?
A: Its value is 2**.

Q: And the “Seroconversion of HBsAg” value [1, 6]?
A: Its value is 0**.

Q: What about the “Seroconversion of anti-HBe” value [1, 6] of the same molecule?
A: The value was 0**.

Q: And the “Seroconversion of Anti-HBs” value [1, 7]?
A: Its value is 1.

Q: And the “Seroconversion of HBeAg” value [1, 7]?
A: Its value is 4**.

Q: What about the “Seroconversion of HBsAg” value [1, 7] of the same molecule?
A: The value was 1**.

Q: What about the “Seroconversion of anti-HBe” value [1, 7] of the same molecule?
A: Its value is 4**.

Q: What about the “Seroconversion of Anti-HBs 24W” value [1, 8] of the same molecule?
A: Its value is 1**.

Q: What about the “Seroconversion of HBeAg 24W” value [1, 8] of the same molecule?
A: The value was 4**.

Q: What about the “Seroconversion of HBsAg 24W” value [1, 8] of the same molecule?
A: Its value is 1**.

Q: And the “Seroconversion of anti-HBe 24W” value [1, 8]?
A: Its value is 4**.

Q: What about the “Seroconversion of Anti-HBs 48W” value [1, 9] of the same molecule?
A: Its value is 0**.

Q: What about the “Seroconversion of HBeAg 48W” value [1, 9] of the same molecule?
A: The value was 0**.

Q: And the “Seroconversion of HBsAg 48W” value [1, 9]?
A: Its value is 0**.

Q: What about the “Seroconversion of anti-HBe 48W” value [1, 9] of the same molecule?
A: Its value is 0**.

Q: And the “patients relapsed to positive for HBV DNA” value ([1]; of the 38 patients HBV DNA negative during treatment, week 48 after treatment termination)?
A: The value was 12.

Q: And the “overall HBV DNA seroconversion rate” value ([1]; week 48 after treatment termination)?
A: Its value is 61.9%.

Q: And the “patients showing adverse effects (anorexia, abdominal discomfort, fluctuating ALT levels)” value [2]?
A: Its value is 8.

Q: And the “patients with normal ALT” value ([3]; after 4 weeks of treatment)?
A: Its value is 66.6%.

Q: And the “patients with normal ALT” value [3, 4]?
A: The value was 28**.
